Among the data in US20250109118A1, “HETEROCYCLIC COMPOUNDS AS SHP2 INHIBITORS, COMPOSITIONS COMPRISING THE HETEROCYCLIC COMPOUND, AND METHODS OF USE THEREOF” (JS INNOMED HOLDINGS LTD., priority 2021, published 2025) are IC50 values, retold here.

Assay [1] addresses T1, SHP2 (PTPN11/SHP2-FL) (Homo sapiens, UniProt Q06124).
T1 construct: SHP2 (PTPN11/SHP2-FL, RBC produced, no cat #); purchased RBC no cat #
T1 sequence (Q06124 1-593): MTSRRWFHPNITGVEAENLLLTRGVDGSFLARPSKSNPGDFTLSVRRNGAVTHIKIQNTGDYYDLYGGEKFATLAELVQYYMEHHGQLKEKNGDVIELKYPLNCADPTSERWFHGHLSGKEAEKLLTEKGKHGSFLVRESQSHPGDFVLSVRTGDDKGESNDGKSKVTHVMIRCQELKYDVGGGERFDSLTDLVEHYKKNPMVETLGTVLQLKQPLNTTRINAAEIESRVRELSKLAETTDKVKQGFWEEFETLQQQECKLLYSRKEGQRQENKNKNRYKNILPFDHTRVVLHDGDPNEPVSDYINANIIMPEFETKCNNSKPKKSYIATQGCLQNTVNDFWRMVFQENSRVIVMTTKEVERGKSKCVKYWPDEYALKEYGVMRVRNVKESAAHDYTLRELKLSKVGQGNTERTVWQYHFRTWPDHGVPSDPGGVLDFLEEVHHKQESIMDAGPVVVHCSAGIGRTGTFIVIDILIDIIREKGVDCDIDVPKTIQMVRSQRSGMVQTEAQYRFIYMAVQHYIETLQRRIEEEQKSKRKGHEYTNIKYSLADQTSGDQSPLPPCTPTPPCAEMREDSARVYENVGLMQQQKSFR
The assay can be described thus: SHP2 biochemical assay (DiFMUP prompt fluorescence). The settings on record: 0.5 nM SHP2, 0.35 μM activating peptide, DiFMUP 100 μM; read-out: SHP2 bichemical activity (IC50). The method, then: SHP2 is allosterically activated through binding of bis-tyro syiphorphorylated peptides to its Src Homology 2 (SH2) domains. The latter activation step leads to the release of the auto-inhibitory interface of SHP2, which in turn renders the SHP2 PTP active and available for substrate recognition and reaction catalysis. The catalytic activity of SHP2 was monitored using the surrogate substrate DiFMUP in a prompt fluorescence assay format. Specifically, the phosphatase reactions were performed at room temperature in 384-well black polystyrene plate, flat bottom, low flange, non-binding surface (Corning, Cat #3575) using a final reaction volume of 20 μL and the following assay buffer conditions: 60 mM HEPES, pH 7.2, 75 mM NaCl, 75 mM KCl, 1 mM EDTA, 0.01% Brij-35, 5 mM DTT, and 10% DMSO (final). The inhibition of SHP2 from the tested compounds (final concentrations varying from 0.003-100 μM) was monitored using an assay in which 0.5 nM of SHP2 (PTPN11/SHP2-FL, RBC produced, no cat #) was incubated with 0.35 μM of the peptide H2NLN(pY)IDLDLV(dPEG8)LST(pY)ASINFQK-amide. After 20 minutes of incubation at room temperature, the surrogate substrate DiFMUP (6,8-difluoro-7-hydroxy-4-methylcoumarin, Invitrogen, cat #D6567, 100 μM final concentration) was added to the reaction. The fluorescence signal was monitored using a microplate reader (Envision, Perkin-Elmer) using excitation and emission wavelengths of 355 nm and 460 nm, respectively. The inhibitor dose response curves were analyzed using normalized IC50 regression curve fitting with control based normalization.
The IC50 values of for Compounds disclosed are listed in Table 2, A: ≤10 nM; B: >10 nM and ≤100 nM; C: >100 nM and ≤1 uM; and D: >1 μM.

Assay [2] concerns MiaPaCa-2 cells. Description: MiaPaCa-2 Cell proliferation assay in 3D culture (CCK8). The settings on record: Homo sapiens, MIA PaCa-2, 120 h; 3D spheroid culture, 5 days with compound, CCK8 readout. Format: cell-based. The procedure: MiaPaCa-2 Cell proliferation assay in 3D culture. To evaluate cell viability, MiaPaCa-2 cells in logarithmic growth phase were seeded at optimal density and grown in as spheroids. Cells were incubated for 24 hours prior to the addition of different concentrations of the compounds. Cells were cultured with the compounds for 5 days and the cell viability was assessed using CCK8. Briefly, 2500 cells were seeded in round bottom ultra-low attachment 96 well plates (coming) in growth media supplemented with 10% FBS and incubated at 37° C. for 24 hours. The compounds were dissolved in DMSO (Sigma) to obtain 10 mM stock solution. Then the compounds were serially diluted in 3-fold to ten concentrations; 5 μL of the dilution above was transferred to 95 uL culture media to obtain the 50× compound stock solution; 4 uL of the 50× compound above was then transferred to the wells containing cells with 196 μL of the culture medium to obtain the final 1× concentration. The final concentration of DMSO was 0.1%. Spheroid cells were incubated in compounds for 5 days. Then 20 μL WST-8 solution (DOJINDO, Cell Counting KIT-8) was added to each well. The plates were further incubated at 37° C. for 1.5 hours, and then absorbance at 450 nm was measured using a microplate reader. Each compound was tested in triplicate and the IC50 value was calculated using GraphPad Prism.
The IC50 values of for Compounds disclosed are listed in Table 2, A: ≤500 nM; B: >500 nM and ≤5 μM; C: >5 μM and ≤50 μM; and D: >50 μM.

Take `CC1(N)CCN(c2cnc(Sc3cccc(NC(=O)NS(=O)(=O)c4ccccc4)c3Cl)cn2)CC1` [Example 1, N-((3-((5-(4-amino-4-methylpiperidin-1-yl)pyrazin-2-yl)thio)-2-chlorophenyl)carbamoyl)benzenesulfonamide]: the half-inhibitory concentration (IC50) was 10 to 100 nM in assay [1] and at most 500 nM in assay [2].
For `CC1(CN)CCN(c2cnc(Sc3cccc(NC(=O)NS(=O)(=O)c4ccccc4)c3Cl)cn2)CC1` [Example 2, N-((3-((5-(4-(aminomethyl)-4-methylpiperidin-1-yl)pyrazin-2-yl)thio)-2-chlorophenyl)carbamoyl)benzenesulfonamide] the same measures were at most 10 nM and at most 500 nM.
Regarding `CC1(N)CCN(c2cnc(Sc3cccc(C(=O)NS(=O)(=O)c4ccccc4)c3Cl)cn2)CC1` [Example 3, 3-((5-(4-amino-4-methylpiperidin-1-yl)pyrazin-2-yl)thio)-2-chloro-N-(phenylsulfonyl)benzamide], the figures for the IC50 in assay [1] and in assay [2] were at most 10 nM and 500 to 5000 nM, respectively.
The matching figures for `CC1(N)CCN(c2cnc(Sc3cccc(NC(=O)NS(=O)(=O)c4ccccc4)c3Cl)c(N)n2)CC1` [Example 4, N-((3-((3-amino-5-(4-amino-4-methylpiperidin-1-yl)pyrazin-2-yl)thio)-2-chlorophenyl)carbamoyl)benzenesulfonamide]: at most 10 nM and at most 500 nM.
For `CC1(CN)CCN(c2cnc(Sc3cccc(C(=O)NS(=O)(=O)c4ccccc4)c3Cl)c(N)n2)CC1` [Example 5, 3-((3-amino-5-(4-(aminomethyl)-4-methylpiperidin-1-yl)pyrazin-2-yl)thio)-2-chloro-N-(phenylsulfonyl)benzamide] the same measures were at most 10 nM and at most 500 nM.
For `CC1(CN)CCN(c2cnc(Sc3cccc(S(=O)(=O)NC(=O)c4ccccc4)c3Cl)cn2)CC1` [Example 7, N-((3-((5-(4-(aminomethyl)-4-methylpiperidin-1-yl)pyrazin-2-yl)thio)-2-chlorophenyl)sulfonyl)benzamide] the same measures were 10 to 100 nM and 500 to 5000 nM.
For `CC1(N)CCN(c2cnc(Sc3cccc(S(=O)(=O)NC(=O)c4ccccc4)c3Cl)c(N)n2)CC1` [Example 8, N-((3-((3-amino-5-(4-amino-4-methylpiperidin-1-yl)pyrazin-2-yl)thio)-2-chlorophenyl)sulfonyl)benzamide], the IC50 lay in the range of 10 to 100 nM in assay [1] and 5000 to 50000 nM in assay [2].
For the compound `CC1(N)CCN(c2cnc(Sc3cccc(C(=O)NS(=O)(=O)C4CC4)c3Cl)cn2)CC1` [Example 18, 3-((5-(4-amino-4-methylpiperidin-1-yl)pyrazin-2-yl)thio)-2-chloro-N-(cyclopropylsulfonyl)benzamide], the results for the IC50 in assay [1] and in assay [2] were 10 to 100 nM and 5000 to 50000 nM, respectively.
As to `CC1(N)CCN(c2cnc(Sc3cccc(C(=O)NS(C)(=O)=O)c3Cl)cn2)CC1` [Example 19, 3-((5-(4-amino-4-methylpiperidin-1-yl)pyrazin-2-yl)thio)-2-chloro-N-(methylsulfonyl)benzamide], the concentration for half-maximal inhibition (IC50) in assay [1] was in the range of 10 to 100 nM; in assay [2] it was 5000 to 50000 nM.
In the case of `CC1(N)CCN(c2cnc(Sc3cccc(C(=O)NS(=O)(=O)C4CCCCC4)c3Cl)cn2)CC1` [Example 20, 3-((5-(4-amino-4-methylpiperidin-1-yl)pyrazin-2-yl)thio)-2-chloro-N-(cyclohexylsulfonyl)benzamide], the IC50 is 10 to 100 nM in assay [1] and 5000 to 50000 nM in assay [2].
On to `CC1(CN)CCN(c2cnc(Sc3cccc(C(=O)NS(=O)(=O)c4ccccc4)c3Cl)cn2)CC1` [Example 21, 3-((5-(4-(aminomethyl)-4-methylpiperidin-1-yl)pyrazin-2-yl)thio)-2-chloro-N-(phenylsulfonyl)benzamide], for which the IC50 in assay [1] was at most 10 nM; in assay [2], at most 500 nM.
As to `CC1(CN)CCN(c2cnc(Sc3cccc(C(=O)NS(=O)(=O)c4ccccn4)c3Cl)cn2)CC1` [Example 22, 3-((5-(4-(aminomethyl)-4-methylpiperidin-1-yl)pyrazin-2-yl)thio)-2-chloro-N-(pyridin-2-ylsulfonyl)benzamide], the IC50 in assay [1] was at most 10 nM; in assay [2] it was at most 500 nM.
For `CC1(CN)CCN(c2cnc(Sc3cccc(C(=O)NS(=O)(=O)c4ccccc4F)c3Cl)cn2)CC1` [Example 23, 3-((5-(4-(aminomethyl)-4-methylpiperidin-1-yl)pyrazin-2-yl)thio)-2-chloro-N-((2-fluorophenyl)sulfonyl)benzamide], the IC50 in assay [1] was at most 10 nM; in assay [2], 500 to 5000 nM.
Consider `CC1(CN)CCN(c2cnc(Sc3cccc(C(=O)NS(=O)(=O)c4cccnc4)c3Cl)cn2)CC1` [Example 24, 3-((5-(4-(aminomethyl)-4-methylpiperidin-1-yl)pyrazin-2-yl)thio)-2-chloro-N-(pyridin-3-ylsulfonyl)benzamide], for which the 50% inhibitory concentration (IC50) in assay [1] was at most 10 nM; in assay [2], 500 to 5000 nM.
The matching figures for `CC1(CN)CCN(c2cnc(Sc3cccc(C(=O)NS(=O)(=O)C4CC4)c3Cl)cn2)CC1` [Example 25, 3-((5-(4-(aminomethyl)-4-methylpiperidin-1-yl)pyrazin-2-yl)thio)-2-chloro-N-(cyclopropylsulfonyl)benzamide]: at most 10 nM and at most 500 nM.
In the case of `C[C@@H]1OCC2(CCN(c3cnc(Sc4cccc(NC(=O)NS(=O)(=O)N5CCC(O)C5)c4Cl)cn3)CC2)[C@@H]1N` (stereo partly drawn) [Example 81, N-((3-((5-((3S,4S)-4-amino-3-methyl-2-oxa-8-azaspiro[4.5]decan-8-yl)pyrazin-2-yl)thio)-2-chlorophenyl)carbamoyl)-3-hydroxypyrrolidine-1-sulfonamide], in assay [2], the IC50 is at most 500 nM.
On the same count and under the same terms, in the case of `C[C@@H]1OCC2(CCN(c3cnc(Sc4cccc(NC(=O)NS(=O)(=O)C5CCC5)c4Cl)cn3)CC2)[C@@H]1N` [Example 82, N-((3-((5-((3S,4S)-4-amino-3-methyl-2-oxa-8-azaspiro[4.5]decan-8-yl)pyrazin-2-yl)thio)-2-chlorophenyl)carbamoyl)cyclobutanesulfonamide] it was at most 500 nM.
With `C[C@@H]1OCC2(CCN(c3cnc(Sc4cccc(NC(=O)NS(=O)(=O)C5CCOC5)c4Cl)cn3)CC2)[C@@H]1N` (stereo partly drawn) [Example 83, N-((3-((5-((3S,4S)-4-amino-3-methyl-2-oxa-8-azaspiro[4.5]decan-8-yl)pyrazin-2-yl)thio)-2-chlorophenyl)carbamoyl)tetrahydrofuran-3-sulfonamide], the IC50 in assay [2] was at most 500 nM.
For the compound `C[C@@H]1OCC2(CCN(c3cnc(Sc4cccc(NC(=O)NS(=O)(=O)N5CCC(N)C5)c4Cl)cn3)CC2)[C@@H]1N` (stereo partly drawn) [Example 84, 3-amino-N-((3-((5-((3S,4S)-4-amino-3-methyl-2-oxa-8-azaspiro[4.5]decan-8-yl)pyrazin-2-yl)thio)-2-chlorophenyl)carbamoyl)pyrrolidine-1-sulfonamide], in assay [2], the half-maximal inhibitory concentration (IC50) is at most 500 nM.

As usually defined, the IC50 is the point on the concentration scale where inhibition reaches its midpoint.
